Measured values from article PMC4936777 (ACS chemical neuroscience, 2015).
Values after ≈ are worked out from the molar mass of the structure shown. One block for each compound: values may come before it.

Columns and labels:
α1β2γ2L GABAA receptor = α1β2γ2L GABAA receptor (Homo sapiens, UniProt P14867+P18507+P47870); assay: Two electrode voltage clamp of GABAA receptors expressed in X. laevis oocytes; type: cell-based; conditions: for modulation of GABA EC10 current: coexposure with GABA EC10, −80 mV; for direct activation of the receptor in the absence of GABA: fropofol at 5 and 50 μM
physchem = type: physicochemical; conditions: water, thermodynamic from solid
[1] = target: T1, human serum albumin (hSA) (Homo sapiens, UniProt P02768); conditions: single site binding model
[2] = test system: albino Xenopus laevis tadpoles; type: in vivo
C57/Bl6 mice = assay: Pharmacological activity and EEG in mice after IV bolus; type: in vivo, mouse
[3] = target: T2, horse spleen apoferritin (HSAF) (Equus caballus, UniProt P02791); assay: [3H]AziPm photolabel competition with HSAF; type: binding; conditions: One μM ligand
T2 sequence (P02791 2-175 limits assumed): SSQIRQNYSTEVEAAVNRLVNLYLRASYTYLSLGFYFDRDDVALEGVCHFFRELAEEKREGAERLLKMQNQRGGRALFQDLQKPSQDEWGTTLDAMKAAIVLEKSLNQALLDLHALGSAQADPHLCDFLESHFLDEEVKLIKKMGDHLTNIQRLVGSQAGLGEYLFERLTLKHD

[4] = test system: isolated, intact rat trabecular muscle; assay: Force development of isolated intact trabecular muscle; conditions: 100 μM
in vivo = conditions: C57/B6, mouse, iv
[5] = target: T2, horse spleen apoferritin (HSAF); assay: Isothermal titration calorimetry with HSAF; type: binding
[6] = target: human serum albumin (hSA) domain III (Homo sapiens, UniProt P02768); assay: in vitro
[7] = target: T2, horse spleen apoferritin (HSAF); assay: 1-aminoanthracene; type: binding
[8] = target: T1, human serum albumin (hSA); assay: biochemical

Hill coefficient (α1β2γ2L GABAA receptor; GABA concentration–response, mean ± SEM): 0.87 ± 0.04
Structure (SMILES): NCCCC(=O)O [GABA, γ-Aminobutyric acid, reference compound]

Structure (SMILES): CC(C)c1cccc(C(C)C)c1F [fropofol, 2-fluoro-1,3-diisopropylbenzene]
solubility at 24 h (physchem): 116 ± 4.4 µM (≈ 20.9 µg/mL) | stoichiometry n for hSA (ITC) [1]: 1.3 ± 0.9 | loss-of-mobility endpoints in tadpoles ([2]; 3–100 μM, 60 and 90 min exposure): none of the X. laevis tadpoles within any dose group exhibited the standard loss-of-mobility endpoints | time to resume normal swimming behaviors after exchange for fresh pond water ([2]; albino, Xenopus laevis, in vivo): 10 to 15 min | observable effects in mice (C57/Bl6 mice; 96 mg/kg, bolus tail vein injection, 10% lipid emulsion): no observable effects | toxicity in mice in the following days postinjection (C57/Bl6 mice; 180 mg/kg IV): no toxicity was observed | time to resume normal activity in mice (C57/Bl6 mice; C57/B6, mouse, in vivo): 2 to 3 h | EEG recording in mice (C57/Bl6 mice; mouse, in vivo): Phenotypical seizure activity | EEG recordings and physical observation in mice (C57/Bl6 mice; mouse, in vivo): generalized tonic-clonic seizure-like activity | loss of righting reflex in mice (C57/Bl6 mice; up to the highest dose): not with even the highest dose | reduction in [3H]AziPm binding to HSAF [3]: 61% | depression (reduction) of maximum force development ([4]; LBN/F1, rat): 35 ± 1% | concentration at 45 s (in vivo; 96 mg/kg): 38000 ng/g | concentration at 10 min (in vivo; 200 mg/kg): 51000 ng/g | Kd [5]: 1.7 µM | fold increase in affinity for HSAF relative to propofol (ITC) ([5]; relative to propofol): 4- to 5 fold | effect on propofol positive modulation of the GABAA receptor (α1β2γ2L GABAA receptor; 50 μM fropofol, with GABA EC10 and propofol): no significant change | modulation of GABA EC10 current (α1β2γ2L GABAA receptor): no significant modulation or inhibition | direct activation of the receptor in the absence of GABA (α1β2γ2L GABAA receptor): no significant direct activation | effect on 5 μM propofol potentiation of GABAA receptor currents (α1β2γ2L GABAA receptor; saturating concentrations of fropofol, with GABA EC10): no significant alteration | inhibition at 75 µM [6]: 37 ± 12% | Kd [7]: 0.7 µM | Kd [8]: 91 µM

Structure (SMILES): CC(C)c1cccc(C(C)C)c1O [propofol, 2,6-diisopropylphenol, reference compound]
loss of righting reflex in mice (C57/Bl6 mice; 20 mg/kg): produced | reduction in [3H]AziPm binding to HSAF [3]: 31% | depression (reduction) of maximum force development ([4]; room temperature): 49 ± 4% | modulation of GABA EC10 current (α1β2γ2L GABAA receptor): concentration-dependent increase in current up to 80 μM | direct activation of the receptor in the absence of GABA (α1β2γ2L GABAA receptor): minor direct activation | Kd [7]: 10 µM
